This note sets out measurements from US7163954B2, “Substituted naphthyl benzothiophene acids” (Wyeth, priority 2003, dated 2007).

Data set [1] addresses T1, recombinant human plasminogen activator inhibitor-1 (PAI-1) (Homo sapiens, UniProt P05121).
T1 construct: purchased Molecular Innovations, Royal Oak, Mich
In words: Primary screen for the PAI-1 inhibition (residual tPA activity, Spectrozyme-tPA chromogenic substrate). The class given is biochemical. The conditions noted are these: 25 μM test compound; inhibition of Plasminogen Activator Inhibitor-1. How it is done: Test compounds are dissolved in DMSO at a final concentration of 10 mM, then diluted 100× in physiologic buffer. The inhibitory assay is initiated by the addition of the test compound (1–100 μM final concentration, !maximum DMSO concentration of 0.2%) in a pH 6.6 buffer containing 140 nM recombinant human plasminogen activator inhibitor-1 (PAI-1; Molecular Innovations, Royal Oak, Mich.). Following a 1 hour incubation at room temperature, 70 nM of recombinant human tissue plasminogen activator (tPA) is added, and the combination of the test compound, PAI-1 and tPA is incubated for an additional 30 minutes. Following the second incubation, Spectrozyme-tPA (American Diagnostica, Greenwich, Conn.), a chromogenic substrate for tPA, is added and absorbance read at 405 nm at 0 and 60 minutes. Relative PAI-1 inhibition is equal to the residual tPA activity in the presence of the test compound and PAI-1. Control treatments include the complete inhibition of tPA by PAI-1 at the molar ratio employed (2:1), and the absence of any effect of the test compound on tPA alone.

T1 sequence (P05121 24-402): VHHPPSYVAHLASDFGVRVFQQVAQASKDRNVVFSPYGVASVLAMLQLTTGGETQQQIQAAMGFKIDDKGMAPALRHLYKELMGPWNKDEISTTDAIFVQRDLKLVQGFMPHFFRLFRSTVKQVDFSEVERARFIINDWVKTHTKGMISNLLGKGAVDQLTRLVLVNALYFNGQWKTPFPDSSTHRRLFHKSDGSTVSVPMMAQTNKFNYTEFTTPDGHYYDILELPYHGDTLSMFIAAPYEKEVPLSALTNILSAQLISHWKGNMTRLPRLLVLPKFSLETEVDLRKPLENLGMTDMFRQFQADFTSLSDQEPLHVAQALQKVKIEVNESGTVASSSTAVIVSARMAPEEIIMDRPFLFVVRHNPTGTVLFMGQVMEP

As a reminder, the inhibition is the relative decrease from the control value, in per cent. One may read the melting point as the temperature of the solid-liquid transition. Consider `O=C(O)COc1ccc2cc(-c3sc4ccccc4c3C(=O)Cc3ccccc3)ccc2c1Br` [Compound 4, [1-Bromo-6-(3-phenylacetyl-benzo[b]thiophen-2-yl)-naphthalen-2-yloxy]-acetic acid], for which the melting point lay in the range of 170 to 172 °C. Further, the inhibition at 25 µM in data set [1] is 54%.

As for `CC(C)(C)CC(=O)c1c(-c2ccc3c(Br)c(OCC(=O)O)ccc3c2)sc2ccccc12` [Compound 6, {1-Bromo-6-[3-(3,3-dimethyl-butyryl)-benzo[b]thiophen-2-yl]-naphthalen-2-yloxy}-acetic acid], the melting point lay in the range of 206 to 207 °C. For the same compound, the inhibition at 25 µM in data set [1] turned out to be 77%.

On to `O=C(Cc1ccccc1)c1c(-c2ccc3c(Br)c(OCc4nnn[nH]4)ccc3c2)sc2ccccc12` [Compound 3, 1-{2-[5-Bromo-6-(1H-tetrazol-5-ylmethoxy)-naphthalen-2-yl]-benzo[b]thiophen-3-yl}-2-phenyl-ethanone], for which, in data set [1], the inhibition at 25 µM is 52%.

With `CCCCC(=O)c1c(-c2ccc3c(Br)c(OCC(=O)O)ccc3c2)sc2ccccc12` [Compound 2, [1-Bromo-6-(3-pentanoyl-benzo[b]thiophen-2-yl)-naphthalen-2-yloxy]-acetic acid], the melting point was 164 to 165 °C. Moreover, in data set [1], the inhibition at 25 µM was found to be 69%.

For the compound `CCCCC(=O)c1c(-c2ccc3c(Br)c(OCc4nnn[nH]4)ccc3c2)sc2ccccc12` [Compound 1, 1-{2-[5-Bromo-6-(1H-tetrazol-5-ylmethoxy)-naphthalen-2-yl]-benzo[b]thiophen-3-yl}-pentan-1-one], the inhibition at 25 µM in data set [1] came to 59%.

For `CC(C)CC(=O)c1c(-c2ccc3c(Br)c(OCc4nnn[nH]4)ccc3c2)sc2ccccc12` [Compound 5, 1-{2-[5-Bromo-6-(1H-tetrazol-5-ylmethoxy)-naphthalen-2-yl]-benzo[b]thiophen-3-yl}-3-methyl-butan-1-one], in data set [1], the inhibition at 25 µM turned out to be 84%.
